Our source for the melting point values is a melting point compilation (Tetko et al.; mined from patent text by program, amines drawn as free bases though some values may be those of a salt).

The melting point is the temperature, or range, at which the solid turns liquid. Compound `FC(F)(F)C1(c2ccccc2)CCNCC1` yielded a melting point of 87.6 °C.

Regarding `Cc1c(Cl)nnc(Cl)c1C(C)(C)CCl`, the melting point was 56 to 58 °C.

For the compound `CCOC(=O)C(O)=Cc1cc(OCc2ccccc2)ncn1`, the melting point lay in the range of 136 to 137 °C.

`Cc1ccc(S(=O)(=O)NC(=O)NCCCCCCNC(=O)NS(=O)(=O)c2ccc(C)o2)o1` had a melting point of 115 to 116 °C.

In turn, `COc1ccc(Cc2cnc(NCCSCc3nccs3)[nH]c2=O)cn1` returned a melting point of 95 to 97 °C.

As to `CCN1CCN(C(=O)c2ccc(C(=O)N3CCN(c4ncccc4NC(C)C)CC3)cc2)CC1`, the melting point lay in the range of 130 to 131 °C.

Consider `CCCN1CC(c2cccc(Cl)c2)=C(c2ccc(S(C)(=O)=O)cc2)C1=O`, for which the melting point was 148 to 149 °C.

As to `CC(Cc1ccccc1)NC(=O)C(F)(F)F` (configuration not stated), the melting point is 82 to 83 °C.

For the compound `CCCCCCCCCCCc1[nH]c2ccc(C(=O)OC)cc2c1C=O`, the melting point is 162 to 165 °C.

Compound `Nc1cc(N2CCCCC2)ccc1[N+](=O)[O-]` returned a melting point of 100 to 101 °C.

In turn, `CCOC(=O)c1cn2c3c(c(F)c(F)cc3c1=O)OCC2CI` (configuration not stated) came in with a melting point of 214 to 217 °C.

The compound `CC(=O)Oc1ccc(C(=O)OCC[C@H](C)COC(=O)c2ccc(OC(C)=O)cc2)cc1` yielded a melting point of 46 °C.

`CCN(CC)C(=O)c1cc(OC)cc(OC)c1-c1ccccc1` gave a melting point of 117 to 118 °C.

With `CCOC(=O)C(Cc1ccccc1)NC(=O)COc1ccc(C2=NNC(=O)NC2)cc1Cl` (configuration not stated), the melting point lay within 180 to 181 °C.

Turning to `CSC1NC(=O)N(C)C(=O)N1N=C(C)C` (configuration not stated), the melting point is 130 to 132 °C.

For `O=C1NS(=O)(=O)c2cccc(O)c21`, the melting point was 228 °C.

For the compound `O=C(NC1CCN(CCCc2ccc(Cl)cc2)C1)C12CC3CC(CC(C3)C1)C2` (configuration not stated), the melting point was 117 to 119 °C.

For the compound `Cc1ccc(S(=O)(=O)n2ccc3c(-c4c(-c5ccc(F)cc5)nc5ccc(Cl)nn45)ccnc32)cc1`, the melting point lay within 244 to 246 °C.

`c1ccc(C2=NC(c3ccccc3)C3=C(N2)c2nc(-c4ccccc4)cc(-c4ccccc4)c2CC3)cc1` (configuration not stated) came in with a melting point of 142 to 144 °C.

Regarding `COC(=O)c1ccc(NC(C)=O)c(I)c1`, the melting point was 140 to 141 °C.

For `CCC(=O)c1cc2c(Cl)cccc2s1`, the melting point fell in the range of 96 to 98 °C.

Regarding `O=C(NCCc1ccccc1)C1CCc2ccccc2C1` (configuration not stated), the melting point fell in the range of 86 to 87 °C.

For the compound `CC(C)(C(=O)C=Cc1ccc(F)cc1)C1OCCO1`, the melting point was found to be 76 °C.

For `O=c1ccn(C(OC2CCCCO2)c2ccccn2)cc1` (configuration not stated), the melting point lay in the range of 173 to 176 °C.

`O=C(NCc1cccnc1)c1cc(-n2cnn(Cc3ccc(F)cc3)c2=O)[nH]n1`: the melting point lay within 235 to 236 °C.

As for `CCCCCCCCC(=N)NC(=S)Nc1ccc(Cl)cc1`, the melting point fell in the range of 102 to 103 °C.

Compound `Oc1ccc(CSSCc2ccc(O)cc2)cc1` gave a melting point of 171 °C.

Consider `Cc1c(-c2ccccc2)sc2nc(N)[nH]c(=O)c12`, for which the melting point was 356 to 358 °C.

In the case of `Cc1nc2ccccc2c(NCc2ccccc2)c1C(C)O` (configuration not stated), the melting point fell in the range of 176 to 177 °C.

Regarding `O=C(NCC(=O)N(c1ccccc1)c1ccccc1)Nc1cccc([N+](=O)[O-])c1`, the melting point worked out at 180 °C.

Compound `CCOC(=O)CNc1nccc(-c2ccccn2)n1` returned a melting point of 85 °C.

In the case of `CC(C)CC(=O)Nc1cccc(-c2ccnc3c(C(=O)c4ccsc4)cnn23)c1`, the melting point was in the range of 137 to 139 °C.

Consider `CN(C)CC(O)c1cc(C(F)(F)F)nc2c(C(F)(F)F)cccc12` (configuration not stated), for which the melting point was in the range of 80 to 80.7 °C.

For the compound `CCOC(=O)c1[nH]c(=O)c(CC(C)C)[n+]([O-])c1N`, the melting point fell in the range of 179 to 181 °C.

`CCC(=O)NC1Cc2cccc3ccc(OC)c(c23)C1` (configuration not stated) came in with a melting point of 184 to 186 °C.

Turning to `CCc1c(C#N)c(-c2ccc(C#N)cc2)c(C)n1Cc1cnc(Cl)c(COC(=O)CCC(=O)O)c1`, the melting point lay in the range of 187 to 188 °C.

On to `CCOC(=O)C1=C(C)NC(=S)N(C(=O)OCC)C1c1ccccc1OC` (configuration not stated), for which the melting point was 117 to 118 °C.
